For one assay, the target named is ROCK2 (Homo sapiens, UniProt O75116). The experiment in a line: In vitro inhibitory activity assay ROCK2 (Method A, ADP-Glo, 10 μM ATP). In kind it is biochemical. As to conditions: ATP 10 μM, read-out: Method A ROCK 2 (Ki). As for the experimental part:
(§1) In vitro inhibitory activity assay description ROCK1 and ROCK2
(§2) The effectiveness of compounds of the present invention to inhibit Rho kinase activity can be determined in a 10 μl assay containing 40 mM Tris pH7.5, 20 mM MgCl2 0.1 mg/mL BSA, 50 μM DTT and 2.5 μM peptide substrate (Myelin Basic Protein) using an ADP-Glo kit (Promega). Compounds were dissolved in DMSO such that the final concentration of DMSO was 1% in the assay. All reactions/incubations are performed at 25° C. Compound (2 uL) and either Rho kinase 1 or 2 (4 μl) were mixed and incubated for 30 min. Reactions were initiated by addition of ATP (4 μL) such that the final concentration of ATP in the assay was 10 μM. After a 1 hour incubation […] of ADP-Glo Reagent was added and after a further 45 minutes incubation 20 uL of Kinase Detection Buffer was added and the mixture incubated for a further 30 minutes. The luminescent signal was measured on a luminometer. […] Compounds were tested in dose-response format and the inhibition of kinase activity was calculated at each concentration of compound. To determine the IC50 (concentration of compound required to inhibit 50% of the enzyme activity) data were fit to a plot of % inhibition vs Log10 compound concentration using a sigmoidal fit with a variable slope and fixing the maximum to 100% and the minimum to 0%. To determine the Ki values the Cheng-Prusoff equation was utilized (Ki=IC50/(1+[S]/Km).
For orientation: In ADP-Glo the light output rises with the ADP produced.

For a further assay, the target named is ROCK1 (Homo sapiens, UniProt Q13464). The experiment in a line: In vitro inhibitory activity assay ROCK1 (Method A, ADP-Glo, 10 μM ATP). The format is biochemical. As to conditions: ATP 10 μM, read-out: Method A ROCK 1 (Ki). The procedure: as §1, §2

Some results are limits rather than exact numbers.

The term Ki denotes a measure of affinity in units of concentration, obtained from inhibition or displacement.

Chain of ROCK1 (Q13464 whole entry): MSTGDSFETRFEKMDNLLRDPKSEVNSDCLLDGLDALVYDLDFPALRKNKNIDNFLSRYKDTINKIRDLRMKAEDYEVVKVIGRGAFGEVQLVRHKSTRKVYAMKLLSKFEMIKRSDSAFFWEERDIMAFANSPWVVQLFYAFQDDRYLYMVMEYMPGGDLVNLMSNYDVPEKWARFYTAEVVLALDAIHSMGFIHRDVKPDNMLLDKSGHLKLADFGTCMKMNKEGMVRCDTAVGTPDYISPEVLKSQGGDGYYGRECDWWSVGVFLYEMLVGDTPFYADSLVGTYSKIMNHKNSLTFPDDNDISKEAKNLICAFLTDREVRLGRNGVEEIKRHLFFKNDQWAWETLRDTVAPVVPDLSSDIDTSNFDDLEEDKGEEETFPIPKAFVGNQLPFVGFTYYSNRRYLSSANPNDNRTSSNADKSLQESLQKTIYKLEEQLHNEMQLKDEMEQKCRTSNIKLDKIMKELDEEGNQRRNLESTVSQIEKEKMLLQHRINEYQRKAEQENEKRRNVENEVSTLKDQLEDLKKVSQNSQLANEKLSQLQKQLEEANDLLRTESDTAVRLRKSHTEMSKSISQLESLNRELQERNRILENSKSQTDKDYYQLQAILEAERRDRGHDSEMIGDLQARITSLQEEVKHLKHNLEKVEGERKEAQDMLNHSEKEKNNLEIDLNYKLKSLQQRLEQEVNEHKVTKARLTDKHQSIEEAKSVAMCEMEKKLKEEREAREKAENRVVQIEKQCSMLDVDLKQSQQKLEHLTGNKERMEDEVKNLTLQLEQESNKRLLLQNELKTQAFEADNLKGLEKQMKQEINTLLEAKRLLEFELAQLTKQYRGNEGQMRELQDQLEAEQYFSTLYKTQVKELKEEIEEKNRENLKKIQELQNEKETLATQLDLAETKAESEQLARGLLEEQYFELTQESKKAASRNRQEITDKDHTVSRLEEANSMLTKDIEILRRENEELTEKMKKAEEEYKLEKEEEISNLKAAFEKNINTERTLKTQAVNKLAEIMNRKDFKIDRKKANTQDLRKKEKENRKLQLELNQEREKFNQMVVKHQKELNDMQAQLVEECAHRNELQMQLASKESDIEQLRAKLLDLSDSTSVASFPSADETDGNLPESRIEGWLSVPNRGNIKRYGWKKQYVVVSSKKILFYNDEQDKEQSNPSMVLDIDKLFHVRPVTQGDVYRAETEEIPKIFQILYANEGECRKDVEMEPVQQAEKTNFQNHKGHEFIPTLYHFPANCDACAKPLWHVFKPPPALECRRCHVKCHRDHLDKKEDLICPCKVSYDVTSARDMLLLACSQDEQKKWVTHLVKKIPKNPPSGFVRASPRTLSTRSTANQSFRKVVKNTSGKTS
Chain of ROCK2 (O75116 whole entry): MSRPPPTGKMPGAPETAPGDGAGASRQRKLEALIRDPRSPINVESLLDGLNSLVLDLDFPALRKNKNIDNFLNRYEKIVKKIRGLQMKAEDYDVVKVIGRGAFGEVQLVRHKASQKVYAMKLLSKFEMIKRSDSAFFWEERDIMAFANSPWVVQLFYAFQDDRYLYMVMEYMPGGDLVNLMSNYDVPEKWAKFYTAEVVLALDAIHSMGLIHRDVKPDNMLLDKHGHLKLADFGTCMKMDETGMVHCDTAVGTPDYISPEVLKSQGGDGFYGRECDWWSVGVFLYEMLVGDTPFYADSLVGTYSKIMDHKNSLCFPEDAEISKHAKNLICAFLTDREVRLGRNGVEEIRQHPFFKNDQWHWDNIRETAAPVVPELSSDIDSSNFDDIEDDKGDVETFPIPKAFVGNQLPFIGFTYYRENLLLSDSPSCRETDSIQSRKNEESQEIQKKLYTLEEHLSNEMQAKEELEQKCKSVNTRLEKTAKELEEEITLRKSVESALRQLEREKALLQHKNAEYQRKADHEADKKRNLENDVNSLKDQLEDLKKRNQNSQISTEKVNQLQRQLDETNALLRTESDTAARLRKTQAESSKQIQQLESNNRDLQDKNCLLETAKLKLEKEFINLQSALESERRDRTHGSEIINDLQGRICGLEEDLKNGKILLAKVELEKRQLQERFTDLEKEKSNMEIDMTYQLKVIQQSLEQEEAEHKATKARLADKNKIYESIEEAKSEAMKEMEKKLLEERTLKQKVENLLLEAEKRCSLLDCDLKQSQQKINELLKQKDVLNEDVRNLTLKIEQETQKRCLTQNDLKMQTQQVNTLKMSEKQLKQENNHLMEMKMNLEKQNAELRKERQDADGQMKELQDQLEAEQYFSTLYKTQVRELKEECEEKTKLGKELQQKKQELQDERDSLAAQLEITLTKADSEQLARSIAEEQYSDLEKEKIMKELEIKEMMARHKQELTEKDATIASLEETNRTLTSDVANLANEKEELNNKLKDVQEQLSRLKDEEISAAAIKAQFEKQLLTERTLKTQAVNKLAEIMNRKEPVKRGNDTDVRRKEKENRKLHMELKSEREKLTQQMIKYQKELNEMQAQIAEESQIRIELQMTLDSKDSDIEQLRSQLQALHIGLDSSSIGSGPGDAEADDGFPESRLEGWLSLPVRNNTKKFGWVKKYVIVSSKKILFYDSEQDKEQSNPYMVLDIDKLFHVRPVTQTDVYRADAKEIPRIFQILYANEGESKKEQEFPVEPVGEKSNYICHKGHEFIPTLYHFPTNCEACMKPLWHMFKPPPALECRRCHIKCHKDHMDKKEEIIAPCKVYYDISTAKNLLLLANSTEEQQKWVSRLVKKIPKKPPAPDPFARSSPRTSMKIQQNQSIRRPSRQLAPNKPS

For `O=C(NCCc1ccncc1)c1cccc(CNc2ncc(-c3cn[nH]c3)c3c2CCO3)c1` [Example 17, 3-(((7-(1H-pyrazol-4-yl)-2,3-dihydrofuro[3,2-c]pyridin-4-yl)amino)methyl)-N-(2-(pyridin-4-yl)ethyl)benzamide], the Ki at ROCK2 and at ROCK1 was ≤ 3 nM in each case.

Take `CN(C)Cc1cccc(NC(=O)c2cccc(CNc3ncc(-c4cn[nH]c4)c4c3CCO4)c2)c1` [Example 18, 3-(((7-(1H-pyrazol-4-yl)-2,3-dihydrofuro[3,2-c]pyridin-4-yl)amino)methyl)-N-(3-((dimethylamino)methyl)phenyl)benzamide]: the Ki on ROCK2 and at ROCK1 was ≤ 3 nM in each case.

`CN(C)Cc1cccc(CNC(=O)c2cccc(CNc3ncc(-c4cn[nH]c4)c4c3CCO4)c2)c1` [Example 19, 3-(((7-(1H-pyrazol-4-yl)-2,3-dihydrofuro[3,2-c]pyridin-4-yl)amino)methyl)-N-(3-((dimethylamino)methyl)benzyl)benzamide]: the inhibition constant (Ki) on ROCK2 and at ROCK1 was ≤ 3 nM each time.

With `O=C(NCCN1CCOCC1)c1cccc(CNc2ncc(-c3cn[nH]c3)c3c2CCO3)c1` [Example 20, 3-(((7-(1H-pyrazol-4-yl)-2,3-dihydrofuro[3,2-c]pyridin-4-yl)amino)methyl)-N-(2-morpholinoethyl)benzamide], the inhibition constant (Ki) at ROCK2 and at ROCK1 was ≤ 3 nM each time.

As to `CN1CCc2nc(NC(=O)c3cccc(CNc4ncc(-c5cn[nH]c5)c5c4CCO5)c3)sc2C1` [Example 21, 3-(((7-(1H-pyrazol-4-yl)-2,3-dihydrofuro[3,2-c]pyridin-4-yl)amino)methyl)-N-(5-methyl-4,5,6,7-tetrahydrothiazolo[5,4-c]pyridin-2-yl)benzamide], the inhibition constant Ki at ROCK2 and on ROCK1 was ≤ 3 nM throughout.

On to `O=C(NCCc1cccnc1)c1cccc(CNc2ncc(-c3cn[nH]c3)c3c2CCO3)c1` [Example 22, 3-(((7-(1H-pyrazol-4-yl)-2,3-dihydrofuro[3,2-c]pyridin-4-yl)amino)methyl)-N-(2-(pyridin-3-yl)ethyl)benzamide], for which the Ki at ROCK2 and on ROCK1 was ≤ 3 nM each time.

As for `O=C(N[C@H](CO)c1ccccc1)c1cccc(CNc2ncc(-c3cn[nH]c3)c3c2CCO3)c1` [Example 23, (S)-3-(((7-(1H-pyrazol-4-yl)-2,3-dihydrofuro[3,2-c]pyridin-4-yl)amino)methyl)-N-(2-hydroxy-1-phenylethyl)benzamide], the inhibitory constant (Ki) at ROCK2 and on ROCK1 was ≤ 3 nM throughout.

For `CN(C)Cc1ccc(CNC(=O)c2cccc(CNc3ncc(-c4cn[nH]c4)c4c3CCO4)c2)cc1` [Example 24, 3-(((7-(1H-pyrazol-4-yl)-2,3-dihydrofuro[3,2-c]pyridin-4-yl)amino)methyl)-N-(4-((dimethylamino)methyl)benzyl)benzamide], the Ki at ROCK2 and on ROCK1 was ≤ 3 nM in each case.

With `Cc1ccc(CNC(=O)c2cccc(CNc3ncc(-c4cn[nH]c4)c4c3CCO4)c2)s1` [Example 25, 3-(((7-(1H-pyrazol-4-yl)-2,3-dihydrofuro[3,2-c]pyridin-4-yl)amino)methyl)-N-((5-methylthiophen-2-yl)methyl)benzamide], the Ki at ROCK2 and on ROCK1 was ≤ 3 nM in each case.

Consider `O=C(NC1CCN(CCc2ccccc2)CC1)c1cccc(CNc2ncc(-c3cn[nH]c3)c3c2CCO3)c1` [Example 26, 3-(((7-(1H-pyrazol-4-yl)-2,3-dihydrofuro[3,2-c]pyridin-4-yl)amino)methyl)-N-(1-phenethylpiperidin-4-yl)benzamide], for which the inhibition constant Ki on ROCK2 and at ROCK1 was ≤ 3 nM each time.

`CN(C)CCn1cc(NC(=O)c2cccc(CNc3ncc(-c4cn[nH]c4)c4c3CCO4)c2)cn1` [Example 27, 3-(((7-(1H-pyrazol-4-yl)-2,3-dihydrofuro[3,2-c]pyridin-4-yl)amino)methyl)-N-(1-(2-(dimethylamino)ethyl)-1H-pyrazol-4-yl)benzamide]: the Ki on ROCK2 and at ROCK1 was ≤ 3 nM throughout.

Values taken from US20240082223A1, “DIHYDROFUROPYRIDINE DERIVATIVES AS RHO- KINASE INHIBITORS” (CHIESI FARMACEUTICI S.P.A., priority 2020, published 2024).
